Laboratory results: PubChem BioAssay AID179 (DTP/NCI, 2004)
Values joined by “and” are separate entries in the source; they are usually repeats but may differ in a detail not shown here. Identical values can stand only once. Active and inactive are the calls of the source.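 Rule for the calls: active = compounds giving half or more protection of infected cells from virus-caused growth loss, again on retest; inactive = the rest.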

Tested on: CEM cells HIV-1 protection, formazan growth assay
Test: NCI AIDS Antiviral Assay
Settings: for IC50: measured here: growth of uninfected CEM cells
How it was run: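 Protection of CEM cells against HIV-1 was scored from cell growth (soluble formazan) across five concentrations, with parallel uninfected cells. Lack of protection may reflect toxicity.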

SMILES	EC50	IC50	outcome
CCOC(=O)c1sc2c(c1OC(=O)c1cccs1)c(=O)n(-c1ccccc1)c(=S)n2-c1ccccc1	> 200 µM	6.92 µM	–
CC(F)(C(N)=O)C(N)=O	> 200 µM	> 200 µM	–
Cc1nn(C(=O)c2ccncc2)c2c1C(c1ccc([N+](=O)[O-])cc1)SC(N)=N2 (centres undefined)	> 200 µM	126 µM	–
Cc1ccc(S(=O)(=O)N/N=C2/C3CC4CCC2C4C3)cc1 (centres undefined)	> 200 µM	> 200 µM	–
Cc1ccc(C(=O)Nc2ccc(CP(=O)(O)O)cc2CP(=O)(O)O)cc1NC(=O)c1cccc(N)c1	> 200 µM	> 200 µM	–
CC(C)CCCC(C)[C@H]1CC[C@H]2[C@@H]3CC[C@H]4C[C@@H](CCCC(c5cc(Cl)c(OCc6ccc(C(=O)O)cc6)c(C(=O)O)c5)c5cc(Cl)c(OCc6ccc(C(=O)O)cc6)c(C(=O)O)c5)CC[C@]4(C)[C@H]3CC[C@]12C (some centres undefined)	20.4 µM and 3.39 µM	> 200 µM and 20 µM	–
C[Si](C)(C)N1N=NC2C(=O)N(c3ccccc3)C(=O)C21 (centres undefined)	> 200 µM	> 200 µM	–
COC(=O)CC1(C)[C@H](O)[C@H]2OC(C)(C)O[C@H]2[C@@H]1O (some centres undefined)	> 955 µM	> 955 µM	–
CCCCCCCCCCCCCCCCCc1nc(C#N)c(N)o1	> 200 µM	25.1 µM	–
COc1ccc(SS(=O)(=O)c2ccc(OC)cc2)cc1	> 56.2 µM	5.25 µM	–
Nn1c(CCCCCCCCc2nnc(COc3c(O)ccc4ccccc34)n2N)nnc1COc1c(O)ccc2ccccc12	> 200 µM	170 µM	–
O=C(OCc1ccccc1)N1CCNCCNCCN(C(=O)OCc2ccccc2)CCNCC1	> 200 µM	112 µM	–
Cn1c(=O)c(Br)c(C=O)n(CCO[N+](=O)[O-])c1=O	> 200 µM	1.78 µM	–
C/C(CC(=O)Nc1cccc(Cl)c1C)=N\NC(=O)c1ccncc1	> 275 µM	129 µM	–
Cc1nc(NCCNCCO)nc2c1C(=O)Nc1ccccc1N2	> 200 µM	32.4 µM	–
Fc1cccc2c1[nH]c1c2ncc2[nH]c3ccccc3c21	> 20 µM	6.92 µM	–
Cn1cnc2nc3ncn(C)c3cc21	> 200 µM	> 200 µM	–
COc1ccc2c(c1)OC(OC)(c1ccccc1)C(O)(OC)C2=O (centres undefined)	> 200 µM	15.1 µM	–
CC(C)OC(=O)C1=C(O)c2ccccc2S(=O)(=O)N1C	> 832 µM	56.2 µM	–
COC(=O)CC(SCCO)SCCO	> 200 µM	> 200 µM	–
COC([C@@H](OC(=O)c1ccccc1)[C@H](OC(=O)c1ccccc1)C(O)COC(=O)c1ccccc1)n1cc(C)c(=O)[nH]c1=O (some centres undefined)	> 200 µM	13.2 µM	–

SMILES	EC50	IC50	outcome
O=[N+]([O-])/C(C(Cl)=C(Cl)Cl)=C(/Nc1ccccc1)Sc1ccccc1	> 200 µM	23.4 µM	–
CC1=CC2OC3CC4OC(=O)/C=C/C=C/C(=O)OCCC(C)C(O)C(=O)OCC2(CC1O)C4(C)C31CO1 (centres undefined)	> 0.2 µM	0.00347 µM	–
CCN(C(=O)N[C@@H](Cc1ccccc1)C(=O)N[C@@H](CC(C)C)C(=O)OC)c1ccccc1	5.01 µM	28.8 µM	–
O=C(O)[C@@H]1CSC(c2ccccc2F)N1 (some centres undefined)	> 200 µM	> 200 µM	–
CC1CCN(C(C)(C)C)P(=O)(Cc2ccccc2)O1 (centres undefined)	–	–	inactive
CC1(c2ccc(Cl)cc2)c2ccccc2C(=O)N1CCCN1C(=O)c2ccccc2C1=O (centres undefined)	> 200 µM	195 µM	–
NC(CSSCC(N)=NC1CCCCC1)=NC1CCCCC1	> 200 µM	95.5 µM	–
O=C(O)CCCCCCCCCCCc1ccccc1	> 200 µM	18.6 µM	–
O=C1C2CCC(N1CCc1ccccc1)n1c(=O)n(-c3ccccc3)c(=O)n12 (centres undefined)	> 200 µM	> 200 µM	–
Cc1cccc2c1C/C(=C1\CCc3c(C)cccc31)C2=O	–	–	inactive
CCCC#CC(O)(C(=O)OC1CCN(C)CC1)C1CCCCC1 (centres undefined)	> 200 µM	> 200 µM	–
COc1ccc(-c2c(C(C)=O)c(C)n(C3OC(CO)C(O)C(O)C3O)c(=S)c2C#N)cc1 (centres undefined)	> 200 µM	58.9 µM	–
CN(/N=C(\C(=O)O)c1ccccc1)C1=NCCN1	> 200 µM	> 200 µM	–
O=C(O)c1ccc(-c2ccc(-c3cc(=S)sc(=O)[nH]3)cc2)cc1	> 263 µM	89.1 µM	–
CN1CC2=C(NC(=S)NC2c2ccccc2Cl)/C(=C/c2ccccc2Cl)C1 (centres undefined)	> 200 µM	13.2 µM	–
CN(NC(=O)/C(=C/c1ccc2c(c1)OCO2)NC(=O)c1ccccc1)c1ccnc2cc(Cl)ccc12	> 200 µM	10.5 µM	–
C#C[C@]1(O)CC[C@H]2[C@@H]3C[C@@H](O)[C@]45CC4CC[C@]5(C)[C@H]3CC[C@@]21C (some centres undefined)	> 200 µM	72.4 µM	–
CCOC(=O)Nn1c(CC#N)nnc1Cc1ccccc1	> 200 µM	> 200 µM	–
O=C1CCN2CCC(=O)c3cccc1c32	–	–	inactive
O=C1C2=Nc3ccccc3C(O)N2c2ccccc21 (centres undefined)	> 200 µM	69.2 µM	–
Oc1cc2ccccc2c2sc(-c3ccccc3)c(-c3ccccc3)[n+]12	> 200 µM	17.8 µM	–

SMILES	EC50	IC50	outcome
COC1N(C2C=CC(CO)O2)C(=O)NC(=O)C1(C)I (centres undefined)	0.275 µM	7.76 µM	–
CC(C)CC(NC(=O)OCC[P+](c1ccccc1)(c1ccccc1)c1ccccc1)C(=O)O (centres undefined)	> 200 µM	9.12 µM	–
C[N+](C)(C)CCC(=O)N1C/C(=C\c2ccccc2)C(=O)/C(=C/c2ccccc2)C1	> 200 µM	2.82 µM	–
CCOC(=O)C1C(NC(N)=O)N(Cc2ccccc2)C(=O)N1Cc1ccccc1 (centres undefined)	> 447 µM	> 447 µM	–
O=c1[nH]c2cc([N+](=O)[O-])ccc2nc1/C(=N/Nc1ccccc1)C(O)c1ccccc1Cl (centres undefined)	> 363 µM	355 µM	–
O=C(c1ccccc1)C1C(=O)c2ccccc2C1=O	> 105 µM	> 105 µM	–
COC(=O)[C@@](NC(=O)OCc1ccccc1)([C@H](C)O)C(F)(F)F	> 200 µM	110 µM	–
O=C(NC1C=Nc2ccc([N+](=O)[O-])cc2NC1=O)c1ccc(Cl)cc1 (centres undefined)	> 200 µM	> 200 µM	–
CN(C)/C=N/c1cc(=O)n(C)c(=O)n1C	–	–	inactive
Cc1c(N=O)c(=O)n(-c2ccccc2)n1C	–	–	inactive
CC(C)CCCC(C)[C@H]1CC[C@@H]2[C@H]3CC[C@H]4C[C@@H](CCC=C(c5cc(Cl)c(OCc6ccc([N+](=O)[O-])cc6)c(C(=O)OCc6ccc([N+](=O)[O-])cc6)c5)c5cc(Cl)c(OCc6ccc([N+](=O)[O-])cc6)c(C(=O)OCc6ccc([N+](=O)[O-])cc6)c5)CC[C@]4(C)[C@@H]3CC[C@]12C (some centres undefined)	23.4 µM	72.4 µM	–
Cc1ccc(C)n1C1CCOC1=O (centres undefined)	–	–	inactive
O=C(O/N=c1/ccc(=O)/c(=N\OC(=O)c2ccccc2)c1=O)c1ccccc1	> 200 µM	47.9 µM	–
CC(C)C[C@H]1[C@@H](OCc2ccccc2)COS(=O)(=O)N1[C@H](C)c1ccccc1	> 200 µM	11.2 µM	–
O=C1CSC(/C(=N/Nc2ccccc2)c2nc3ccccc3[nH]2)=N1	> 15.5 µM	> 15.5 µM	–
C1=C(c2ccccc2)C(N2CCOCC2)Oc2ccccc21 (centres undefined)	> 200 µM	89.1 µM	–
C/C1=C/C(=O)O[C@@H]2C[C@@H](CC[C@H](C)/C=C\C=C\CC1)O[C@@](O)([C@@H]1CSC(=O)N1)C2	> 2 µM	0.363 µM	–
O=C1CNc2cc(N3CCOCC3)ccc2N1	> 200 µM	28.2 µM	–
Cc1[nH]cc2c1C(c1ccccc1F)=NCC(=O)N2	> 229 µM	> 229 µM	–
O=C1OC2(c3ccccc3Oc3ccccc32)c2ccccc21	–	–	inactive
CCN1CCC(O)(/C=C/c2ccc(OC)cc2)C(C(=O)/C=C/c2ccc(OC)cc2)C1 (centres undefined)	> 479 µM	> 479 µM	–

SMILES	EC50	IC50	outcome
COc1ccc(C2=CC(C(C)=C(C(N)=O)C(N)=O)C=C(c3ccc(Br)cc3)C2)c(OC)c1 (centres undefined)	> 200 µM	75.9 µM	–
CC(C)(C)OC(=O)NC(CSCc1ccc(C(=O)c2ccccc2)cc1)C(=O)O (centres undefined)	> 200 µM	50.1 µM	–
O=C1C=CC(=O)C(CNc2ccc(C(=O)OC34CC5CC(CC(C5)C3)C4)cc2)=C1Br	> 200 µM	1.51 µM	–
CC(=O)OC1Cn2ccc[n+]2C1 (centres undefined)	> 200 µM	> 200 µM	–
COc1cc2c3c(c1OC)/C(=N/OS(=O)(=O)c1ccc(C)cc1)CC3N(S(=O)(=O)c1ccc(C)cc1)CC2 (centres undefined)	–	–	inactive
COc1ccc([N-]/C(=N\n2c(=O)c(C)nn(C)c2=S)N(c2ccc(OC)cc2)c2nn3c(=O)c(C)n[n+](C)c3s2)cc1	–	–	inactive
[O-][n+]1c2ccccc2cc2c1c1ccccc1n2O	> 20.9 µM	> 20.9 µM	–
COc1ccc2c(c1OC)C(=O)O[C@@H]2C1c2cc3c(cc2CCN1C)OCO3 (some centres undefined)	> 245 µM	> 245 µM	–
Cc1cc(C)c2c(c1C)CN1CN2Cc2c(C)c(C)cc(C)c21	–	–	inactive
CC/C(=C(\C#N)c1ccc(Cl)cc1)c1ccc(OCCN(CC)CC)cc1	> 100 µM	2.82 µM	–
CO[C@H]1C[C@H](O[C@H]2CC[C@]3(C=O)[C@H]4CC[C@]5(C)[C@@H](C6=CC(=O)OC6)CC[C@]5(O)[C@@H]4CC[C@]3(O)C2)O[C@H](C)[C@H]1O	–	–	inactive
O=C(O)C1Cc2ccccc2OC1=O (centres undefined)	> 200 µM	> 200 µM	–
Cc1cccc(C)c1NC(=S)/N=C/C1=C(O)c2ccccc2C1=O	> 200 µM	15.8 µM	–
Cc1c(CC#N)cc(C)c2c3c([nH]c12)-c1ccccc1CC3	> 26.3 µM	19.1 µM	–
COc1ccc2[nH]c3c(C)c4ccnc(NCCCN(C)CCCNc5ccc6nnn7c8ccccc8c(=O)c5c67)c4c(C)c3c2c1	> 0.1 µM	0.0316 µM	–
NC(=O)C1C2CC3C(NC(=O)C31)C2O (centres undefined)	> 200 µM	> 200 µM	–
Cc1cn([C@H]2C[C@@H]3[C@@H](COC(CCl)N3O)O2)c(=O)[nH]c1=O (some centres undefined)	> 200 µM	31.6 µM	–
c1cc2[nH]snc2c2cncc12	> 200 µM	11.2 µM	–
CCOC(=O)C(/C(=N\NC(=O)OC)C(=O)Nc1cc(OC)ccc1OC)c1cnc2ccccc2n1 (centres undefined)	81.3 µM	138 µM	–
CC1(C)CC(=O)C2=C(C1)Nc1ccccc1S2	–	–	inactive
